Assay results as given in article PMC12721191, “Oxidative hypoxia drives TGF-β1–induced fibrosis under normoxia” (Redox Biology, 2025).

Tests used:
[1] = Metabolic stability in pooled human liver microsomes; type: in vitro ADME; details: with NADPH, 0–60 min, read-out: half-life (t1/2) in HLMs
Experimental: To initiate the reaction, NADPH generating system was added to the incubation samples and further incubated for specific time points (0, 5, 15, 30, 45, and 60 min). Then, sample aliquots were taken and terminated with cold acetonitrile.

colon = assay: Colonic histopathology in the BLM mouse study; type: in vivo, ICR mice; details: BLM mice; ACF-2 10 mg/kg i.p. every 2 days or NIDB 60 mg/kg/day
Source text: Fixed left lung lobes were paraffin-embedded, sectioned (4 μm), and stained with H&E or MT. A blinded pathologist graded pulmonary fibrosis on the 1-8 Ashcroft scale; representative images illustrate typical lesions. Colon samples were processed by the swiss-roll method, stained with H&E, and scored for inflammation and erosion, which were combined into a composite histological score. All animal studies were approved by the Institutional Animal Care and Use Committee of Jeju National University (Approval ID: 2024-0058) and conducted in compliance with institutional guidelines. Male ICR mice (6 weeks old, average body weight 27 g) were purchased from […] (South Korea) and housed under controlled temperature (22 ± 2 °C) and humidity (0.0 ± 15.0 %) on a 12 hr light-dark cycle with free access to food and water. […] Colon tissue: Colons were harvested, flushed with 1xPBS, and prepared using the swiss-roll method before embedding in paraffin. Sections of 4 μm thickness were subjected to H&E staining as described above. Colonic injury was evaluated by two independent parameters: (i) inflammation score (0-3) and (ii) erosion score (0-3). A composite histological score was then calculated as the sum of inflammation and erosion scores for each sample.

CYP2C8 = biological target: T1, CYP2C8 (Homo sapiens, UniProt P10632); assay: Cytochrome P450 inhibition assay in HLMs; type: in vitro ADME; details: pooled human liver microsomes, probe amodiaquine (N-deethylation), up to 50 μM
T1 construct: tissue Xenotech H0630; host or cells: pooled human liver microsomes
T1 sequence (P10632 1-490): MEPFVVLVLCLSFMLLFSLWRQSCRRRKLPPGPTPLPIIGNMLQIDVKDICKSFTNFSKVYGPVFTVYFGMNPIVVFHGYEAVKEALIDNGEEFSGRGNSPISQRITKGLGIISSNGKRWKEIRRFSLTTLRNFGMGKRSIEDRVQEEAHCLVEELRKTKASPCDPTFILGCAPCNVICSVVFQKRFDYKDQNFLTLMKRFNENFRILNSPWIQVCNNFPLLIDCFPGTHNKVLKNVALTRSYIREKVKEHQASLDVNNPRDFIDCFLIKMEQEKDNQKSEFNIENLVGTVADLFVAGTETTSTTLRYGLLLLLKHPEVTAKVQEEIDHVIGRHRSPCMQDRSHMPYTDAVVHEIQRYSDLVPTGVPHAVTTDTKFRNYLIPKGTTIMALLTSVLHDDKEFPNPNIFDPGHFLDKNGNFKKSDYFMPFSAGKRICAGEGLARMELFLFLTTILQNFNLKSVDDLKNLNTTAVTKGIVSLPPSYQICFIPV
Experimental: All experiments were performed in triplicate. Phenacetin O-deethylase, coumarin hydroxylase, bupropion hydroxylase, amodiaquine N-deethylase, tolbutamide 4-hydroxylase, S-mephenytoin hydroxylase, dextromethorphan O-demethylase, chlorozoxazone 6-hydroxylase, and midazolam 1’-hydroxylase activities were determined as probe activities for CYP1A2, CYP2A6, CYP2B6, CYP2C8, CYP2C9, CYP2C19, CYP2D6, CYP2E1, and CYP3A, respectively, using cocktail incubation and tandem mass spectrometry, as described previously^2,3.

A549 = assay: Western blot of HIF-1α, fibrosis and EMT markers in A549; type: cell-based, human

- half-life at 1 µM [1]: > 1 h
- IC50 (CYP2C8): 6.24 µM
SMILES: COc1ccc(-c2c(-c3ccc(O)c(OC)c3)oc3cc(OC)c(OC)cc3c2=O)cc1 [ACF-2]
- composite histological score of colon (inflammation + erosion) (colon): did not induce colonic inflammation or erosion
- BLM-induced HIF-1α levels (Western blot) (A549; A549, BLM 15 μM, 10 h): effectively suppressed
- fibronectin, α-SMA, N-cadherin (Western blot) (A549; A549, TGF-β1 24 h, ACF-2 7 μM): coordinated suppression of fibrosis markers (fibronectin, α-SMA) and EMT marker (N-cadherin)
- COL3A1 and COL4A6 (Western blot) (A549; A549, TGF-β1 24 h, ACF-2 co-treatment): dose-dependent reduction of fibrosis markers COL3A1 and COL4A6
